Assays:
[1] = molecular target: T1, islet amyloid polypeptide (IAPP) (Homo sapiens, UniProt P10997); assay: ThT-based kinetic assay of IAPP fibrillation; assay type: biochemical; conditions: for relative t50 of IAPP fibrillation versus control reaction / inhibition of IAPP fibrillation (in words): 15 μM IAPP, equimolar ratio; for inhibition of IAPP fibrillation (in words): FIG. 2C; for inhibition capacity towards IAPP fibrillation (in words): ThT assays under our conditions
T1 construct: IAPP is a 37 residue neuropancreatic hormone peptide; purchased Anaspec (Fremont, Calif.)
T1 sequence (P10997 34-70 limits assumed): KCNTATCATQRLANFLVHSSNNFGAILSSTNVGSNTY
From the text: The aggregation kinetics of IAPP was probed using an exogenous reporter, Thioflavin T (ThT), which quantifies the amount of fibers in solution without perturbing the aggregation kinetics of IAPP (see Wolfe, L. S.; Calabrese, M. F.; Nath, A.; Blaho, D. V.; Miranker, A. D.; Xiong, Y. Proc. Natl. Acad. Sci. U.S.A. 2010, 107, 16863-16868; Levine, H. Protein Sci. 1993, 2, 404-410). […] The kinetics of IAPP fibrillation was quantified using the reaction midpoint, t50, which is the time required to reach 50% fluorescence in the fibrillation reaction (FIG. 8).
Kinetic assays were conducted on a FlexStation 3 Multi-Mode Microplate reader from Molecular Devices (Sunnyvale, Calif.). Experiments were conducted in triplicate in a 96-well plate with a final volume of 200 μL per well. Every measurement was an average of 50 readings. The aggregation of IAPP was initiated by its addition from a stock solution (1 mM in DMSO) to phosphate buffer. The stoichiometry ratio for ThT to IAPP was 0.5:1. Peptide aggregation was monitored by ThT fluorescence (λex=445 nm and λem=485 nm). The blank sample contained all the components of the peptide samples except peptide. The sample data were processed by subtracting the blank and renormalizing the fluorescence intensity by setting the maximum value to 1.
Kinetic assays in the presence of the compounds of the invention were conducted under the same conditions. Small molecules were added from a stock solution (1 mM or 10 mM in DMSO) to keep the final concentration of DMSO less than 1.0% (v/v). Small molecules were added to the wells with ThT and buffer and mixed gently with a pipette before adding IAPP. To keep the conditions identical, an equal amount of DMSO was added to the wells with IAPP only reactions. For the aggregation kinetics of Aβ42, the peptide was dissolved in 1N NaOH (0.5-1 mM) and vortexed for 2 min. to ensure the complete solubility. The aggregation of 3 μM Aβ42 was initiated by addition of peptide from a stock solution (in 1 N NaOH, 0.5-1 mM) to phosphate buffer.
Kinetic profiles were processed using Origin (version 9.1). Kinetic curves were fit using the built-in sigmoidal fit. Each run was fit independently to extract the t50 (time required to reach 50% of the maximum fluorescence intensity). Error bars represent standard deviations from the mean of at least three independent experiments.
The membrane model system selected for the amyloid assays is a mixture of DOPG (dioleoylphosphatidylglycerol) and DOPC (dioleoylphosphatidylcholine) at 3:7 molar ratio, which mimics physiological conditions (Ono, K.; Condron, M. M.; Teplow, D. B. Proc. Natl. Acad. Sci. U.S.A. 2009, 106, 14745-14750). The lipid catalyzed aggregation of IAPP was initiated by adding freshly prepared 15 μM IAPP (1 mM stock solution in DMSO) to the phosphate buffer (50 mM NaPi, 150 mM KCl, pH 7.4) containing 15 μM ThT and 750 μM of unilamellar liposomes (LUVs, DOPG:DOPC, 3:7, d=100 nm).

[2] = Partition coefficient; assay type: physicochemical
[3] = molecular target: T2, IAPP-induced lipid membrane leakage (Homo sapiens, UniProt P10997); assay: Fluorescein-based liposome leakage assay; assay type: biochemical; conditions: 4 μM IAPP, equimolar ratio
T2 construct: IAPP is a 37 residue neuropancreatic hormone peptide; purchased Anaspec (Fremont, Calif.)
T2 sequence (P10997 34-70 limits assumed): T1 sequence (P10997 34-70 limits assumed)
From the text: Colocalization of IAPP at the mitochondrial membrane and the subsequent membrane poration is considered to be one of the potential contributors to β-cell toxicity. Therefore, a liposome leakage assay could serve as a surrogate marker for IAPP induced cytotoxicity (see Last, N. B.; Miranker, A. D. Proc. Natl. Acad. Sci. U.S.A. 2013, 110, 6382-6387; and Last, N. B.; Rhoades, E.; Miranker, A. D. Proc. Natl. Acad. Sci. U.S.A. 2011, 108, 9460-9465). A previously reported fluorescein-based liposome leakage assay was employed to test the effect of ADH-101 on membrane associated α-helical intermediates of IAPP. Briefly, fluorescein-dextran conjugate (MW=70 kDa) was encapsulated in unilamaller extruded lipid vesicles (DOPG:DOPC, 3:7, d=100 nm). The size of fluorescein-dextran conjugate allows it to stay inside the lipid vesicles during IAPP mediated membrane poration. The leakage kinetics was probed by the quenching of fluorescence using a fluorescent quencher, DPX (p-xylene-bis-pyridinium […]). The kinetic profiles of leakage are single exponential with a decrease in fluorescence as a function of time. The leakage reaction was initiated by introducing 200 μM liposome into a solution of 4 μM IAPP and 6 mM of DPX. The introduction of the excess ionic concentration by DPX was counterbalanced by adjusting the buffer concentration. The kinetics of the leakage mediated by IAPP yielded a single exponential profile with a leakage rate of 7.3±1.1×10^−3 s^−1 (FIG. 5A).
The kinetics of liposome leakage induced by IAPP was monitored on QuantaMaster C-61 fluorescence spectrometer (Photon Technology International, Edison, N.J.) at 25° C. […] The stock solution of IAPP used in the measurements was kept in water at a concentration of 1 mM. The stock solution of water soluble quencher, DPX (p-xylene-bis-pyridinium bromide) was prepared in buffer (100 mM KCl, 50 mM NaPi, pH 7.4) at a concentration of 100 mM. The small molecules used in the leakage assay were dissolved in DMSO with a concentration range of 10-20 mM. The final concentration of dye encapsulating liposome, DPX, human IAPP, and small molecules were 200, 6000, 4, and 4 μM respectively. The final buffer concentration was corrected using higher concentration of buffer to keep the osmolality balanced. […] To determine the leakage rate constant, first the fluorescence was normalized and corrected by subtracting it from normalized fluorescence of control reaction. The corrected fluorescence was fit using equation given below (using Origin 9.1). All the experiments were performed in triplicate and the error values presented are standard deviations. a*exp(−b*x)+c (2) a=amplitude from 100% unleaked to 0% leaked c=final fraction of unleaked liposome y=change in fluorescence b=leakage rate constant

[4] = lipid catalyzed (750 μM LUVs, DOPG:DOPC 3:7)

SMILES: CCOC(=O)c1cc(NC(=O)c2cc(NC(=O)c3cc([N+](=O)[O-])cn3CC(C)C)cn2CC(C)C)cn1CC(C)C [ADH-105]
- relative t50 of IAPP fibrillation versus control reaction ([1]; de novo / lipid free): 2.6 fold
- relative t50 of IAPP fibrillation versus control reaction [1, 4]: 1.5 fold

SMILES: CCOC(=O)c1cc([N+](=O)[O-])cn1CC(C)C [ADH-113]
- inhibition of IAPP fibrillation (in words) [1]: ineffective

SMILES: CCOC(=O)c1cc([N+](=O)[O-])cn1CCC(=O)O [ADH-117]
- inhibition of IAPP fibrillation (in words) [1]: ineffective

SMILES: CCOC(=O)c1cc(NC(=O)c2cc(NC(=O)c3cc([N+](=O)[O-])cn3CCCc3ccccc3)cn2CC(C)C)cn1CCC(=O)O [ADH-120]
- antagonist of oligomerization, fibrillation, and/or aggregation of IAPP (in words) [1]: effective antagonist

SMILES: COC(=O)c1ccc(NC(=O)c2ccc(NC(=O)c3ccc([N+](=O)[O-])c(OCC(=O)O)n3)c(OCC(C)C)n2)c(OCC(C)C)n1 [ADH-201, reference compound]
- relative t50 of IAPP fibrillation versus control reaction [1, 4]: 1.4 fold

SMILES: COC(=O)c1ccc(NC(=O)c2ccc(NC(=O)c3ccc([N+](=O)[O-])c(OCC(=O)O)n3)c(OCC(C)C)n2)c(OCC(=O)O)n1 [ADM-11, reference compound]
- logP [2]: -0.8
- relative t50 of IAPP fibrillation versus control reaction [1, 4]: 1.9 fold

SMILES: CC1=C/C(=C(\c2ccc(N)c(S(=O)(=O)[O-])c2)c2ccc(N)c(S(=O)(=O)O)c2)C=C(S(=O)(=O)[O-])C1=N.[Na+].[Na+] [AF, Acid fuchsin, reference compound]
- effect on IAPP induced liposome leakage (in words) [3]: unable to effect
- inhibition capacity towards IAPP fibrillation (in words) [1]: moderate inhibition capacity

SMILES: COc1cc(/C=C/C(=O)CC(=O)/C=C/c2ccc(O)c(OC)c2)ccc1O [Curcumin]
- inhibition capacity towards IAPP fibrillation (in words) [1]: moderate inhibition capacity

SMILES: O=C(O[C@@H]1Cc2c(O)cc(O)cc2O[C@@H]1c1cc(O)c(O)c(O)c1)c1cc(O)c(O)c(O)c1 [EGCG, reference compound]
- effect on IAPP induced liposome leakage (in words) [3]: unable to effect
- inhibition capacity towards IAPP fibrillation (in words) [1]: moderate inhibition capacity

From patent publication US11124479B2, “Oligopyrroles as antagonists of islet amyloid polypeptide oligomerization” (New York University, priority 2017, dated 2021)
